{"source": "patent US20120114596A1", "about": "“TSLP PROMOTES IMMUNE EVASION AND PERSISTENCE OF VIRUSES” (priority 2009, published 2012)", "key": {"TSLP expression": {"system": "TSLP expression", "details": "cited from earlier work"}, "CD11c+ DCs": {"system": "CD11c+ DCs", "format": "cell-based, human"}, "DCs [1]": {"system": "DCs", "assay": "DC polarization / cytoskeleton architecture by epifluorescence microscopy", "format": "cell-based, human"}, "DCs [2]": {"system": "DCs", "assay": "DC motility in micro-channel system (confined environment)", "format": "cell-based, human", "excerpt": "A tissue represents a confined environment for cell migration (Irimia et al., Lab Chip, 2007, 7, 1783-1790). Cells may be “trapped” in narrow spaces, being forced to pass through areas of diverse densities. In order to mimic such in vivo situation, a micro-channel system was used. This system allows quantifying diverse parameters to define the cell movement and to restrain the direction of the mobile cells.\nThe microfluidic device was fabricated in PDMS (Whitesides G. M., E., O., Takayama S., X., J. & E, I. D. Ann Rev Biomed Eng, 2001 3, 335). The PDMS piece, with embedded microchannels and holes for the inlet and outlet ports, and a glass Iwaki chamber (Milian) were activated in a plasma cleaner (PDC-32G Harrick) and bonded to each other. The chambers were left under strong vacuum for 5 min in the plasma cleaner and plasma was turned on to render the top surface of the PDMS and the inlet and outlet holes hydrophilic. Fibronectin solution at 50 μg/ml was placed on top of the inlet and outlet ports. The solution spontaneously invaded the channels and all air bubbles were resorbed into the PDMS due to the previous vacuum treatment. Fibronectin was incubated for 1 h at room temperature, then washed with PBS then replaced by cell culture medium. The cells were concentrated and micropipette tips containing the cells were inserted in the inlet port. Cells fell inside the port, bound to the bottom coverslip and started migrating. They entered the channels spontaneously, without any mechanical or chemical stimulation.\nPhase contrast […], using an automated microscope (Nikon ECLIPSE TE1000-E, and Olympus X71, with a Marzhauser motorized stage and an HQ2 Roper camera) equipped with an environmental chamber for temperature, humidity and CO2 (Life Imaging Services). Cells remained alive and motile during the entire period of recording.\nTo analyse the importance of myosin II in DCs migration, cells were pre-treated with […] blebbistatin and then concentrated and inserted in the microchannels."}, "DCs [3]": {"system": "DCs", "assay": "DC activation by surface expression of CD40, CD80, CD86, OX40L"}, "naive CD4+ T cells": {"system": "naive CD4+ T cells", "assay": "Priming of naive CD4+ T cells by activated DCs, T cell cytokine profile", "format": "cell-based, human", "details": "DC:T 1:5, 5-6 days, re-stimulation", "experimental": "After 24 h of culture, stimulated CD11c^+ DCs were collected, washed, and co-cultured with allogenic naïve CD4^+ T cells in round-bottomed plates 96-well culture plates (Falcon) at a 1:5 DC: T cell ratio in Yssel's medium (kind gift of Hans Yssel) containing 10% FCS (Hyclone). Peripheral blood naïve CD4^+ T cells were isolated by using CD4 T cell isolation kit II (Miltenyi Biotec) followed by staining for CD45RO-FITC, CD45RA-PE, CD4-APC, and cell sorting of CD45RA^+, CD4^+, CD45RO^− cells (purity>99%) with a FACSAria (BD Bioscience). Standard Th subsets were generated in presence of Dynabeads CD3/CD28 T cell expander (1 bead per cell) (Invitrogen) and 10 ng/ml IL-12 (R&D Systems) for Th1, 25 ng/ml IL-4 (R&D Systems) for Th2 and in absence of any polarizing cytokine for Th0.\nAfter 5-6 days, cells were harvested, extensively washed and viability was determined by trypan blue exclusion. […] Cytokines in culture supernatants were measured by cytometric bead assay (CBA) Flex Sets (BD Bioscience) according to the manufacturer's instruction. IFN-γ-, IL-4-, IL-10-, TNF-producing cells were analysed by intracellular cytokine staining after addition of 10 μg/ml Brefeldin during the last 3 h of re-stimulation. […] Cells were stained with anti-IFN-γ FITC, anti-IL-4 PE, anti-IL-10 PE, anti-TNF PE (BD Pharmingen) washed and then analysed by flow cytometry (FACScan Becton Dickinson)."}, "Langerhans cells (LC)": {"system": "Langerhans cells (LC)", "assay": "Epidermal explant model of LC emigration", "format": "cell-based, human", "details": "FIGS. 2B and C", "excerpt": "Next, epidermal explants were used as a global model to study the emigration of LC."}}, "note": "“Also recorded” adds a separate entry of the source."}
{"molecule": "CC1=C(/C=C/C(C)=C\\C=C\\C(C)=C\\C(=O)O)C(C)(C)CCC1", "note": "[9-cis-retinoic acid]", "values": [{"measurement": "regulation of TSLP expression", "setting": "TSLP expression", "value": "negative regulators of TSLP expression"}]}
{"molecule": "Cc1ccc2c(c1)C(=O)C1(O)CCN(c3ccccc3)C1=N2", "note": "(centres unmarked) [blebbistatin, reference compound]", "values": [{"measurement": "blebbistatin dose inhibiting TSLP-induced DC migration", "setting": "CD11c+ DCs", "value": 20, "unit": "nM"}, {"measurement": "morphology of TSLP-DCs under myosin II inhibition", "setting": "DCs [1]; TSLP with 20 nM blebbistatin, 12 h", "value": "extremely elongated cellular shape"}, {"measurement": "effect on TSLP-induced DC entry into micro-channels", "setting": "DCs [2]; blebbistatin 50 nM pre-culture", "value": "significantly inhibited"}]}
{"molecule": "c1ccc2ncncc2c1", "note": "[quinazoline]", "values": [{"measurement": "regulation of TSLP expression", "setting": "TSLP expression", "value": "negative regulators of TSLP expression"}]}
{"molecule": "TSLP: cytokine of the IL-7 family produced by epithelial cells; recombinant from R&D Systems", "values": [{"measurement": "DC activation based on surface CD40, CD80 and CD86", "setting": "DCs [3]; 24 h of culture", "value": "strong up-regulation"}, {"measurement": "surface OX40-ligand (OX40L) expression on DC", "setting": "DCs [3]; 48 h of culture", "value": "up-regulation"}, {"measurement": "T cell cytokine profile induced by activated DC", "setting": "naive CD4+ T cells", "value": "Th2 profile"}, {"measurement": "DC migration in transwell", "setting": "CD11c+ DCs", "value": "highly efficient for migration"}, {"measurement": "time after TSLP exposure at which migration started", "setting": "CD11c+ DCs", "value": 3, "unit": "h"}, {"measurement": "migration of CD1a+ Langerin+ TSLP-receptor+ CD80+ cells from epidermal explants", "setting": "Langerhans cells (LC)", "value": "significantly increased; also recorded: more efficient than TNFa"}, {"measurement": "DC polarization (actin cytoskeleton morphology)", "setting": "DCs [1]", "value": "extremely polarized"}, {"measurement": "increase in capacity of DCs to enter micro-channels vs control medium", "setting": "DCs [2]; 3 h time-lapse, n=3", "value": 4, "unit": "fold"}, {"measurement": "median velocity of DC in micro-channels vs medium", "setting": "DCs [2]; DC pre-cultured in medium or TSLP", "value": "no significant difference"}]}
